According to BindingDB's records for patent US12391669 (University Of California, 2025):

What was measured:
[1] = target: Serine/threonine-protein kinase/endoribonuclease IRE2 (Human, UniProt Q76MJ5); assay: Not found
Description: Not found

[2] = target: Serine/threonine-protein kinase/endoribonuclease IRE1 (Homo sapiens, UniProt O75460); assay: Not found
Description: Not found

Chain of Serine/threonine-protein kinase/endoribonuclease IRE1 (O75460 whole entry): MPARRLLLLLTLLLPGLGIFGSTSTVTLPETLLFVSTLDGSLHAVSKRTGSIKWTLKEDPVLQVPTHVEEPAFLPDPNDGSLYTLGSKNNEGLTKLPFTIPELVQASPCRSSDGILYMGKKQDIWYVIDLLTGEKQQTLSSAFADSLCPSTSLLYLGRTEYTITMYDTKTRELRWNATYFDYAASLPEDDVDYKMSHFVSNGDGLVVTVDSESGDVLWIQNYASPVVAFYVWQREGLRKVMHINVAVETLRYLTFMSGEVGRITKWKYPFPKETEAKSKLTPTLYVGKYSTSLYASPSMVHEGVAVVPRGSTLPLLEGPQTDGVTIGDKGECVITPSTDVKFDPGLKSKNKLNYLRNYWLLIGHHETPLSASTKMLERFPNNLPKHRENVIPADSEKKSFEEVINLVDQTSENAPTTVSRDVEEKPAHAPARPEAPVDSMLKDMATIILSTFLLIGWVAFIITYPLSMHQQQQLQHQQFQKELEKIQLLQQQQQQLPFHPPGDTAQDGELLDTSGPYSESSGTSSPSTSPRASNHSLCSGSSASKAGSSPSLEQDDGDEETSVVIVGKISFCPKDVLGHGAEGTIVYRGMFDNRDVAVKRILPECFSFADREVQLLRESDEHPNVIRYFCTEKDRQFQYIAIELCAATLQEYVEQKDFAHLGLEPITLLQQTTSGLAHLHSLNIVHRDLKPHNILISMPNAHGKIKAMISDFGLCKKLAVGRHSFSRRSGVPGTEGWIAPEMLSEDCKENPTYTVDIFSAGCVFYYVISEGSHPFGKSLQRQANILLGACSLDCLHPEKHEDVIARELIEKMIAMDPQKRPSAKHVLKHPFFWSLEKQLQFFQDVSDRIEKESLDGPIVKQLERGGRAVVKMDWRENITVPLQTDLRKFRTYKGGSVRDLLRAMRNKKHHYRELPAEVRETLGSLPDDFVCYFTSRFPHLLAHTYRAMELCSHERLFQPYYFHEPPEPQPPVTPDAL
Chain of Serine/threonine-protein kinase/endoribonuclease IRE2 (Q76MJ5 whole entry): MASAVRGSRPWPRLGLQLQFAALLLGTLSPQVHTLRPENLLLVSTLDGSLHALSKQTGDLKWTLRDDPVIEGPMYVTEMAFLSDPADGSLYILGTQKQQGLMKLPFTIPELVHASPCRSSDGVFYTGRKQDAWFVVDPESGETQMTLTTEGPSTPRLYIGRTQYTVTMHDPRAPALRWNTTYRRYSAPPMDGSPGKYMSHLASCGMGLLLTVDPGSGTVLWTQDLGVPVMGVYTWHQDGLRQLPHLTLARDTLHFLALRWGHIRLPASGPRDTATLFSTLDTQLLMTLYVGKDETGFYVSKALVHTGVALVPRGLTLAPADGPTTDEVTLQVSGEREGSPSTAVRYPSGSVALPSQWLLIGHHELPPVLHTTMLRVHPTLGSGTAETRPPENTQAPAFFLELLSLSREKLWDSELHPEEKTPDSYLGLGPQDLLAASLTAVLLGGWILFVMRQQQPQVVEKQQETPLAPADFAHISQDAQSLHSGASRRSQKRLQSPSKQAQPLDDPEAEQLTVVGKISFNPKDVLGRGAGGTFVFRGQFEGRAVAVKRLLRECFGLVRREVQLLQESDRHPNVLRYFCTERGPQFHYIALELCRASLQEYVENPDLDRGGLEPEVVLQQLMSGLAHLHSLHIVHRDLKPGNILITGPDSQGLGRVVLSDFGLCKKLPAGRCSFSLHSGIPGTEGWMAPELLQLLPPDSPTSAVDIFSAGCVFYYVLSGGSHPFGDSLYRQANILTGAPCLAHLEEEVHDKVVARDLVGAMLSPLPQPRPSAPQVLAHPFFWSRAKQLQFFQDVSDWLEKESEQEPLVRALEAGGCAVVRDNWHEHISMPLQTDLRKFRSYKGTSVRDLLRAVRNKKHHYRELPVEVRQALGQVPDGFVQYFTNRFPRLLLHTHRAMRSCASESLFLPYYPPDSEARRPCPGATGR

| Compound | IC50 [1] | IC50 [2] |
| --- | --- | --- |
| Cc1ccc(C(=O)NCc2ccccc2Cl)cc1Oc1ncsc1-c1ccnc(N[C@H]2CCCNC2)n1 [US12391669, Compound 20] | > 10000 nM | 52 nM |
| c1cc(Cc2nc3ccccc3[nH]2)cc(Oc2ncsc2-c2ccnc(N[C@H]3CCCNC3)n2)c1 [US12391669, Compound 35] |  | 443 nM |
